In US20250198987A1, “SYSTEM FOR MEASURING METASTATIC POTENTIAL OF CANCER CELLS AND METHOD FOR MEASURING METASTATIC POTENTIAL OF CANCER CELLS BY USING SAME” (Seoul National University Hospital, priority 2020, published 2025):
Structures can show the parent of a compound that is named as a salt. Where two headings read alike, the source gives them in different places.

Experiments:
lung cancer cells (A549) [1] = conditions: lung mimicking model, FIG. 5A
Experimental: Then, gelation was allowed at room temperature for 15 minutes. Then, after coating with collagen (0.03 mg/ml, 1 VL content) (sigma, collagen type I solution) and fibronectin (0.001%, 5 mg) (Sigma, F0895) for two hours at 37° C., a total of 20 μl of 4×10^6/ml of HUVEC (LONZA, HUVEC-Umbil vein, Pooled cells) as vascular endothelial cells was added into one of the cell culture channels, the chip was raised at 90°, and the cells were cultured for one to two hours so as to be adhered in a direction of the gel layer formed in the middle. Then, put the chip down to its original state, replace the medium, and when the vascular endothelial cells form one blood vessel layer starting from the gel layer in the middle, a total of 20 μl of 1×10^6/ml lung cancer cells (A549) were put on the same layer, the chip was raised at 90° and cultured overnight so that the chip was attached in the direction of the gel layer formed in the middle. Then, the chip was put down again, the medium was replaced, and cultured for 5 days, and it was confirmed whether the lung cancer cells migrated to the middle gel layer. After that, the chip was put down to the original state again, the medium was replaced, the cells were cultured for five days, and whether the lung cancer cells migrated to the middle gel layer was checked. […]

lung cancer cells (A549) [2] = conditions: BBB mimicking model, FIG. 5B
Text: In addition, the BBB mimicking model was manufactured in the same method of manufacturing the lung mimicking model, but astrocytes (Human Astrocytes) (ScienCell, #1800) were used instead of fibroblasts, human brain microvascular endothelial cells (HBMVEC) (Cell systems, ACBRI 376) were used instead of HUVECs as vascular endothelial cells, and the total culture periods were set to be different due to the difference in cell proliferation rates between the lung mimicking model and the BBB mimicking model. […] In the experimental method, as described in Example 1 above, blood vessel cells were treated with CD31, lung cancer cells were treated with cytokeratin 8, and the cells were photographed by using a confocal microscope, Carl Zeiss, LSM710.

c1cc(CN2CCCNCCNCCCNCC2)ccc1CN1CCCNCCNCCCNCC1 [AMD3100, AMD3100 (octahydrochloride)]
metastasis of lung cancer cells (lung cancer cells (A549) [1]; 1 μg/ml and 5 μg/ml, treated for one day or six days, compared to the group to which AMD3100 is not treated, confocal microscope): generally reduced
metastasis suppression (lung cancer cells (A549) [1]; 1 μg/ml treated for six days, compared among treatment groups): best metastasis suppression
metastasis of lung cancer cells (lung cancer cells (A549) [2]; 1 μg/ml and 5 μg/ml, treated for one day or six days, confocal microscope): reduced more
metastasis suppression (lung cancer cells (A549) [2]; 1 μg/ml treated for one day, compared among treatment groups): best metastasis suppression
